Holding throughout (type): biochemical
Assay [1] addresses T1, Kinase insert Domain containing Receptor (KDR: the catalytic domain of the VEGF receptor) (Homo sapiens, UniProt P35968).
T1 construct: KDR: the catalytic domain of the VEGF receptor
The assay can be described thus: Inhibition of Kinase insert Domain containing Receptor (KDR), radioactive phosphorylation of Glu:Tyr copolymer. The following applies: IC50, substrate phosphorylation. Here is the method: In this standard pharmacological test procedure, KDR protein is mixed, in the presence or absence of a inhibitor compound, with a substrate peptide to be phosphorylated (a copolymer of glutamic acid and tyrosine, E:Y :: 4:1) and other cofactors such as Mg^++ and sodium vanadate (a protein tyrosine phosphatase inhibitor) in an appropriate buffer to maintain pH (7.2). ATP and a radioactive tracer (either P^32- or P^33- labeled ATP) is then add to initiate phosphorylation. After incubation, the radioactive phosphate associated with the acid-insoluble fraction of the assay mixture is then quantified as reflection of substrate phosphorylation. […] Multiple entries for a given compound indication it was tested multiple times.

Assay [2] addresses T2, epidermal growth factor receptor kinase (EGF-R Kinase, recombinant enzyme; His-tagged cytoplasmic domain of EGFR) (Homo sapiens, UniProt P00533).
T2 construct: EGFR cDNA encoding amino acids 645 - 1186 preceded by Met-Ala-(His)6; Met-Ala-(His)6 (N); made in house; host or cells: Sf9 insect cells, recombinant baculovirus vHcEGFR52
Description: Inhibition of Epidermal Growth Factor Receptor Kinase (EGF-R) using recombinant enzyme, RR-SRC peptide phosphorylation, 33P-ATP. The note with it: for inhibition at 0.5 µM: read-out: %Inh @ 0.5 µM; for IC50: recombinant enzyme, 90 min at room temperature. Here is the method: Representative test compounds were evaluated for their ability to inhibit the phosphorylation of the tyrosine residue of a peptide substrate catalyzed by the enzyme epidermal growth factor receptor kinase. The peptide substrate (RR-SRC) has the sequence arg-arg-leu-ile-glu-asp-ala-glu-tyr-ala-ala-arg-gly. The enzyme used in this test procedure is the His-tagged cytoplasmic domain of EGFR. A recombinant baculovirus (vHcEGFR52) was constructed containing the EGFR cDNA encoding amino acids 645 - 1186 preceded by Met-Ala-(His)6. Sf9 cells in 100 mm plates were infected at an moi of 10 pfu/cell and cells were harvested 48 h post infection. A cytoplasmic extract was prepared using 1% Triton X-100 and applied to Ni-NTA column. After washing the column with 20 mM imidazole, HcEGFR was eluted with 250 mM imidazole (in 50 mM Na2HPO4, pH 8.0, 300 mM NaCl). Fractions collected were dialyzed against 10 mM HEPES, pH 7.0, 50 mM NaCl, 10% glycerol, lug/mL antipain and leupeptin and 0.1 mM Pefabloc SC. The protein was frozen in dry ice/methanol and stored -70°C.
Test compounds were made into 10 mg/mL stock solutions in 100% dimethylsulfoxide (DMSO). Prior to experiment, stock solutions were diluted to 500 uM with 100% DMSO and then serially diluted to the desired concentration with HEPES buffer (30 mM HEPES pH 7.4).
For the enzyme reaction, 10 uL of each inhibitor (at various concentrations) were added to each well of a 96-well plate. To this was added 3 uL of enzyme (1:10 dilution in 10mM HEPES, pH 7.4 for final cone. of 1:120). This was allowed to sit for 10 min on ice and was followed by the addition of 5 ul peptide (80 uM final cone.), 10ul of 4X Buffer (Table A), 0.25 uL ^33P-ATP and 12 uL H2O. The reaction was allowed to run for 90 min at room temperature and was followed by spotting the entire volume on to precut P81 filter papers. The filter discs were washed 2X with 0.5% phosphoric acid and radioactivity was measured using a liquid scintillation counter.
The inhibition data for representative compounds of the invention are shown below in TABLE 1. […] The % inhibition of the test compound was determined for at least three different concentrations and the IC50 value was evaluated from the dose response curve. […] CPM(control) is in units of counts per minute and was a number expressing the amount of radiolabled ATP (γ-^33P) incorporated into the RR-SRC peptide substrate by the enzyme after 90 minutes at room temperature in the absence of test compound as measured by liquid scintillation counting. The CPM values were corrected for the background counts produced by ATP in the absence of the enzymatic reaction. […]

Assay [3] deals with Epithelial Cell Kinase (ECK) (Homo sapiens, UniProt P29317). Description: Inhibition of Epithelial Cell Kinase (ECK), immobilized biotinylated peptide, HRP anti-phosphotyrosine readout. The following applies: IC50, substrate phosphorylation. Here is the method: In this standard pharmacological test procedure, a biotinylated peptide substrate is first immobilized on neutravidin-coated microtiter plates. The test drug, the Epithelial Cell Kinase (ECK), Mg^++, sodium vanadate (a protein tyrosine phosphatase inhibitor), and an appropriate buffer to maintain pH (7.2) are then added to the immobilized substrate-containing microtiter wells. ATP is then added to initiate phosphorylation. After incubation, the assay plates are washed with a suitable buffer leaving behind phosphorylated peptide which is exposed to horse radish peroxidase (HRP)-conjugated anti-phosphotyrosine monoclonal antibody. The antibody-treated plates are washed again and the HRP activity in individual wells is quantified as a reflection of degree of substrate phosphorylation. […] Multiple entries for a given compound indication it was tested multiple times.
Sequence of Epithelial Cell Kinase (ECK) (P29317 24-976, species assumed): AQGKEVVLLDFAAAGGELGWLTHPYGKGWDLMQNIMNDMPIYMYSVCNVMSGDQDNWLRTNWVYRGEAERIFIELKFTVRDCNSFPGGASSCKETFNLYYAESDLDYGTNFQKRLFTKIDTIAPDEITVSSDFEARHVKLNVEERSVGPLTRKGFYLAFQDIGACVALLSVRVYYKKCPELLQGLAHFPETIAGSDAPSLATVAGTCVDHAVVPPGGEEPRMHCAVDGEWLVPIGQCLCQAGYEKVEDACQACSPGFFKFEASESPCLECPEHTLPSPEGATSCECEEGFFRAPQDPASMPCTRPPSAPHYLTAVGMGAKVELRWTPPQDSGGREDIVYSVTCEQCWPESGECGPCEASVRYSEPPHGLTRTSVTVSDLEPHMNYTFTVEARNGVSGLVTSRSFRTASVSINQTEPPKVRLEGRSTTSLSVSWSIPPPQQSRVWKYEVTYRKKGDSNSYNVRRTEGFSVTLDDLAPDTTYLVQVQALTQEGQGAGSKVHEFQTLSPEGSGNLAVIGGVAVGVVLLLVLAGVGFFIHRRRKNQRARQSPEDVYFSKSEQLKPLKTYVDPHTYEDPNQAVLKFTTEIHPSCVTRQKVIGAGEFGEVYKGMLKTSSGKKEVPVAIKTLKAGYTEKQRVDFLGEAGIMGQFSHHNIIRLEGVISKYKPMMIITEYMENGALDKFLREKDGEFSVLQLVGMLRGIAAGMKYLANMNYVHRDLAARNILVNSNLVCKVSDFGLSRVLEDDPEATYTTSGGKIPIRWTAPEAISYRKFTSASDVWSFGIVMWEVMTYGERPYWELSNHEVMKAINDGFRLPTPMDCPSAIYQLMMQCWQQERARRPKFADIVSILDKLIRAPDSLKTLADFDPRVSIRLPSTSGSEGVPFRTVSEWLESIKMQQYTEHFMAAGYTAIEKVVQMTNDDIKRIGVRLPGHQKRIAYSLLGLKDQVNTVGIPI

Assay [4] addresses Recombinant human MEK 1 (MAPKK) / recombinant human ERK2 (MAPK) (Mek-Erk) (Homo sapiens, UniProt P28482+Q02750). Description: Mitogen Activated Protein Kinase (MAPK) assay, two component coupled Mek-Erk test.
Description: To evaluate inhibitors of the MAP (mitogen activated protein) kinase a two component coupled standard pharmacological test procedure, which measures phosphorylation of a serine/threonine residue in an appropriate sequence in the substrate in the presence and absence of a putative inhibitor, was used. Recombinant human MEK 1 (MAPKK) was first used to activate recombinant human ERK2 (MAPK) and the activated MAPK (ERK) was incubated with substrate (MBP peptide or MYC peptide) in the presence of ATP, Mg^+2 and radiolabeled ^33P ATP. The phosphorylated peptide was captured on a P 81 phosphocellulose filter (paper filter or embedded in microtiter plate) washed and counted by scintillation methods.
The peptide substrates used in the assay are MBP, peptide substrate ([sequence]), or synthetic Myc substrate, ([sequence]•5 TFA. The recombinant enzymes used were prepared as GST fusion proteins of human ERK 2 and human MEK 1. Inhibitor samples were prepared as 10X stocks in 10% DMSO and an appropriate aliquot was used to deliver either 10 ug/ml for a single point screening dose or 100, 10, 1, and 0.1 uM final concentration for a dose response curve. Final DMSO concentrations were less than or equal to 1%.
The reaction was run as follows in 50 mM Tris kinase buffer, pH 7.4 in a reaction volume of 50 ul. The appropriate volume of kinase buffer and inhibitor sample was added to the tube. Appropriate dilution of enzyme was delivered to give 2-5 ug recombinant MAPK (Erk ) per tube. The inhibitor was incubated with MAPK (Erk) for 30 min at 0° C. Recombinant Mek (MAPKK) ( 0.5-2.5 ug) or fully activated Mek (0.05-0.1 units) was added to activate the Erk and incubated for 30 min at 30° C. Then substrate and gamma ^33P ATP was were added to give a final concentration of 0.5- 1 mM MBPP or 250-500 uM Myc; 0.2-0.5 uCi gamma P 33 ATP/tube; 50 µM ATP final concentration. Samples were incubated at 30°C for 30 minutes and the reaction was stopped by adding 25 µl of ice cold 10 %TCA .After samples were chilled on ice for 30 min, 20 µl of sample was transferred onto P 81 phosphocellulose filter paper or appropriate MTP with embedded P 81 filter. Filter papers or MTP were washed 2 times with a large volume of 1% acetic acid, then 2 times with water. The filters or MTP were briefly air dried before addition of scintillant and samples were counted in the appropriate scintillation counter set up for reading ^33P isotope.
The raw data was captured as cpm. Sample replicates were averaged and corrected for background count. Mean cpm data was tabulated by group and % inhibition by a test compound was calculated as (corrected cpm control- corrected. cpm sample/control) X 100 = % inhibition.

Results on 16 compounds are retold here after EP1117659B1, “SUBSTITUTED 3-CYANOQUINOLINES AS PROTEIN TYROSINE KINASES INHIBITORS” (Wyeth Holdings Corporation, priority 1998, dated 2000).

Several values for one entry are separate records, joined by “and”; a condition that tells them apart may be missing. Identical values can stand only once. Counter-ions that a name gives are not always drawn. Like-named read-outs stand apart in the source and are kept apart here. Bounds are passed on as bounds.

Sequence of Recombinant human MEK 1 (MAPKK) / recombinant human ERK2 (MAPK) (Mek-Erk) (P28482 2-360): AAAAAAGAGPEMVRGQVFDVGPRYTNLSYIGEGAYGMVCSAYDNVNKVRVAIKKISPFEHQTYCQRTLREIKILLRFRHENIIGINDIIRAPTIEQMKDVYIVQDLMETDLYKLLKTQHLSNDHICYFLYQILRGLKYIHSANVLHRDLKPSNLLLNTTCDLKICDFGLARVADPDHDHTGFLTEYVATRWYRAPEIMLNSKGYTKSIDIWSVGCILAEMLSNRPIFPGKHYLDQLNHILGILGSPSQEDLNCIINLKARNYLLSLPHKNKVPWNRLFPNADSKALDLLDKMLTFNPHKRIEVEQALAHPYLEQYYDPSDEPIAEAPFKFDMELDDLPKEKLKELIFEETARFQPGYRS
Sequence of Recombinant human MEK 1 (MAPKK) / recombinant human ERK2 (MAPK) (Mek-Erk) (Q02750 whole entry): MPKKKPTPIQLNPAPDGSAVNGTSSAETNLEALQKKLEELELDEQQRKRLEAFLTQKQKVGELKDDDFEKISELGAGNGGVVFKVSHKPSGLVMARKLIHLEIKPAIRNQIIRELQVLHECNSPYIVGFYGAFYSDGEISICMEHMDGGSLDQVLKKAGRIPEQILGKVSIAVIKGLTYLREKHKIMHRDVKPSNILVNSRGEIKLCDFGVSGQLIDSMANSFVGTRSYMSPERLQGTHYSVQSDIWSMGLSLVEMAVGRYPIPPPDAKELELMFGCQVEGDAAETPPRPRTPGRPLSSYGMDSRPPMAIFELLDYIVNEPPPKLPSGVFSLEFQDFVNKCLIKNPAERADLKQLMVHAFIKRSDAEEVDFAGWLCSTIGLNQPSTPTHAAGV
T1 sequence (P35968 834-1162 limits assumed): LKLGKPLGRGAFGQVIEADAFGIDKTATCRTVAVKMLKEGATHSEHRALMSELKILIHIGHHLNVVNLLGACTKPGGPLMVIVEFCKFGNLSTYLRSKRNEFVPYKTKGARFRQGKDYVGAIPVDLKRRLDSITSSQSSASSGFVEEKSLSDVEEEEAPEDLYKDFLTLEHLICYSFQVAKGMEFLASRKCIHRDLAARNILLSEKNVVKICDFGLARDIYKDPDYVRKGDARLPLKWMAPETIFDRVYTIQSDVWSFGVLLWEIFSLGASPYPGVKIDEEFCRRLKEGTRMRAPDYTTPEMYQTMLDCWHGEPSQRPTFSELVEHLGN
T2 sequence (P00533 669-1210): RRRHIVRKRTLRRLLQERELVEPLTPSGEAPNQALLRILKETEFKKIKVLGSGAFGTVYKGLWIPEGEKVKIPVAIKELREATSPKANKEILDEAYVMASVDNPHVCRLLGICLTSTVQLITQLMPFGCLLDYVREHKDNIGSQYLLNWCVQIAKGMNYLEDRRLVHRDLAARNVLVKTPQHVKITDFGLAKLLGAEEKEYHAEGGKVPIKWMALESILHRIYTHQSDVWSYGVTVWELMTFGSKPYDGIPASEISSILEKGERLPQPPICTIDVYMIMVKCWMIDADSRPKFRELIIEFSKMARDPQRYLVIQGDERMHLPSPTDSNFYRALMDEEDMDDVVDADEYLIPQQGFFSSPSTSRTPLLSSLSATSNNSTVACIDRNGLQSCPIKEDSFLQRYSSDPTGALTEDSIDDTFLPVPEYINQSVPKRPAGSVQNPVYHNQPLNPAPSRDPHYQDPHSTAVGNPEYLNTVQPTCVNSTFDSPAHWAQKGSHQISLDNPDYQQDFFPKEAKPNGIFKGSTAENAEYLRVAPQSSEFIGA

As for `CCOc1cc2ncc(C#N)c(Nc3ccc4ncsc4c3)c2cc1OCC` [Example 97, 4-(Benzothiazol-6-ylamino)-6,7-diethoxy-quinoline-3-carbonitrile HCl Salt], the IC50 in assay [1] is above 2.56 µM; in assay [2], above 10 µM; in assay [3] it was above 2.56 µM; in assay [4] (read-out: Mek-Erk µM), 55 µM. The inhibition at 0.5 µM in assay [2] was found to be 7%.
`COc1cc2ncc(C#N)c(Nc3ccc4c(C)cc(=O)[nH]c4c3)c2cc1OC` [Example 129, 6,7-Dimethoxy-4-(4-methyl-2-oxo-1,2-dihydro-quinolin-7-ylamino)-quinoline-3-carbonitrile]: the IC50 is above 25.9 µM in assay [1], above 1 µM in assay [2], above 25.9 µM in assay [3] and above 100 µM in assay [4] (read-out: Mek-Erk). The inhibition at 0.5 µM in assay [2] stood at 6.7%.
Regarding `COc1cc2ncc(C#N)c(Nc3ccc4sc(C)nc4c3)c2cc1OC` [Example 130, 6,7-Dimethoxy-4-(2-methyl-benzothiazol-5-ylamino)-quinoline-3-carbonitrile], the IC50 is above 26.6 µM in assay [1], above 1 µM in assay [2], above 26.6 µM in assay [3] and above 100 µM in assay [4] (read-out: Mek-Erk). In addition, the inhibition at 0.5 µM in assay [2] was 5%.
Regarding `COc1cc2ncc(C#N)c(Nc3ccc4[nH]c(=O)sc4c3)c2cc1OC` [Example 131, 6,7-Dimethoxy-4-(2-oxo-2,3-dihydro-benzothiazol-6-ylamino)-quinoline-3-carbonitrile], the IC50 in assay [1] was above 26.4 µM; in assay [2] it was above 1 µM; in assay [3], above 26.4 µM; in assay [4] (read-out: Mek-Erk), above 100 µM. Also, the inhibition at 0.5 µM in assay [2] was 0%.
For the compound `COc1cc2ncc(C#N)c(Nc3cccc4ncccc34)c2cc1OC` [Example 132, 6,7-Dimethoxy-4-(quinolin-5-ylamino)-quinoline-3-carbonitrile], the IC50 in assay [1] was above 28.1 µM; in assay [2], above 1 µM; in assay [3] it was above 28.1 µM; in assay [4] (read-out: Mek-Erk), 90 µM. Also, the inhibition at 0.5 µM in assay [2] stood at 0%.
As for `COc1cc2ncc(C#N)c(Nc3cccc4cnccc34)c2cc1OC` [Example 133, 4-(Isoquinolin-5-ylamino)-6,7-dimethoxy-quinoline-3-carbonitrile], the IC50 in assay [1] was above 28.1 µM; in assay [2], above 1 µM; in assay [3] it was above 28.1 µM; in assay [4] (read-out: Mek-Erk), 90 µM. Further, in assay [2], the inhibition at 0.5 µM came out at 0%.
`COc1cc2ncc(C#N)c(Nc3cccc4cccnc34)c2cc1OC` [Example 134, 6,7-Dimethoxy-4-(quinolin-8-ylamino)-quinoline-3-carbonitrile]: the IC50 in assay [1] was above 28.1 µM; in assay [2], above 1 µM; in assay [3] it was above 28.1 µM; in assay [4] (read-out: Mek-Erk), above 100 µM. Also, in assay [2], the inhibition at 0.5 µM came to 35%.
Regarding `COc1cc2ncc(C#N)c(Nc3ccc(O)c4ncccc34)c2cc1OC` [Example 135, 4-(8-Hydroxy-quinolin-5-ylamino)-6,7-dimethoxy-quinoline-3-carbonitrile], the IC50 is 26.9 µM in assay [1], above 1 µM in assay [2], 0.537 µM in assay [3] and above 100 µM in assay [4] (read-out: Mek-Erk). For the same compound, the inhibition at 0.5 µM in assay [2] was 0%.
Turning to `COc1ccc2ncc(C#N)c(Nc3ccc4cn[nH]c4c3)c2c1` [Example 141, 4-(1H -Indazol 6-ylamino)-6-methoxy-quinoline-3-carbonitrile], the IC50 in assay [1] is 63.4 µM; in assay [2], above 1 µM; in assay [3], above 31.7 µM; in assay [4] (read-out: Mek-Erk), 1.1 µM and 2 µM. Further, the inhibition at 0.5 µM in assay [2] turned out to be 5.5%.
Turning to `COc1ccc2ncc(C#N)c(Nc3ccc4nn[nH]c4c3)c2c1` [Example 142, 4-(3H -Benzotriazol-5-ylamino)-6-methoxy-quinoline-3-carbonitrile], the IC50 in assay [1] is 94.8 µM; in assay [2] it was above 1 µM; in assay [3], above 31.6 µM; in assay [4] (read-out: Mek-Erk) it was 30 µM. For the same compound, the inhibition at 0.5 µM in assay [2] turned out to be 24%.
As to `COc1ccc2c(Nc3ccc4cn[nH]c4c3)c(C#N)cnc2c1` [Example 143, 4-(1H-Indazol-6-ylamino)-7-methoxy-quinoline-3-carbonitrile], the IC50 in assay [1] is 47.6 µM and > 3.17 µM; in assay [3] it was above 31.7 µM; in assay [4] (read-out: Mek-Erk), 2 µM.
On to `COc1ccc2c(Nc3ccc4nn[nH]c4c3)c(C#N)cnc2c1` [Example 144, 4-(3H -benzotriazol-5-ylamino)-7-methoxy-quinoline-3-carbinitile], for which the IC50 is > 94.8 µM and 94.8 µM in assay [1]; above 1 µM in assay [2]; above 31.6 µM in assay [3]; above 100 µM in assay [4] (read-out: Mek-Erk µM). Besides, the inhibition at 0.5 µM in assay [2] amounted to 14%.
As for `COc1cccc2c(Nc3ccc4cn[nH]c4c3)c(C#N)cnc12` [Example 148, 4-(1H -Indazol-6-ylamino)-8-methoxy-quinoline-3-carbonitrile], the IC50 in assay [1] is above 95.1 µM; in assay [2], above 1 µM; in assay [3], above 63.4 µM; in assay [4] (read-out: Mek-Erk) it was above 100 µM. The inhibition at 0.5 µM in assay [2] amounted to 11%.
With `COc1cccc2c(Nc3ccc4nn[nH]c4c3)c(C#N)cnc12` [Example 149, 4-(3H -benzotriazol-5-ylamino)-8-methoxy-quinoline-3-carbonitrile], the IC50 in assay [1] was above 94.8 µM; in assay [2], above 1 µM; in assay [3], above 31.6 µM; in assay [4] (read-out: Mek-Erk µM) it was above 100 µM. Further, in assay [2], the inhibition at 0.5 µM amounted to 9%.
Take `COc1cc2ncc(C#N)c(Nc3ccc4ncccc4c3)c2cc1OC` [Example 153, 6,7-Dimethoxy-4-(quinoline-6-ylamino)-quinoline-3-carbonitrile]: the IC50 in assay [1] was above 28.1 µM; in assay [2], above 1 µM; in assay [3], above 28.1 µM; in assay [4] (read-out: Mek-Erk), above 100 µM. Further, the inhibition at 0.5 µM in assay [2] was 14%.
As to `COc1cc2c(Nc3ccc4nn[nH]c4c3)c(C#N)cnc2c(OC)c1OC` [Example 156, 4-(3H-Benzotriazol-5-ylamino)-6,7,8-Trimethoxy-quinoline-3-carbonitrile], the IC50 in assay [1] is above 79.7 µM; in assay [2], above 1 µM; in assay [3] it was above 26.6 µM; in assay [4] (read-out: Mek-Erk µM), 35 µM. In assay [2], the inhibition at 0.5 µM was found to be 34%.
